According to PubChem BioAssay (NCI):
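96-well plates; 48 h exposure; 5 concentrations. Endpoints by linear interpolation between flanking doses. Not reached: highest tested concentration assigned. At the GI50, growth is halved. TGI denotes the concentration required for complete inhibition of growth.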

Legend:
Assay in all cases: NCI anticancer screen, dose series, 48 h; in the data active means GI50 below about 0.43 µM; inactive means the rest
786-0 renal = test system: 786-0 renal
A498 renal = test system: A498 renal
A549 NSCLC = test system: A549 NSCLC
ACHN renal = test system: ACHN renal
BT-549 breast = test system: BT-549 breast
CAKI-1 renal = test system: CAKI-1 renal
CCRF-CEM leukemia = test system: CCRF-CEM leukemia
COLO 205 colon = test system: COLO 205 colon
DU-145 prostate = test system: DU-145 prostate
EKVX NSCLC = test system: EKVX NSCLC
HCC-2998 colon = test system: HCC-2998 colon
HCT-116 colon = test system: HCT-116 colon
HCT-15 colon = test system: HCT-15 colon
HL-60(TB) leukemia = test system: HL-60(TB) leukemia
HOP-62 NSCLC = test system: HOP-62 NSCLC
HOP-92 NSCLC = test system: HOP-92 NSCLC
HS 578T breast = test system: HS 578T breast
HT29 colon = test system: HT29 colon
K-562 leukemia = test system: K-562 leukemia
KM12 colon = test system: KM12 colon
LOX IMVI melanoma = test system: LOX IMVI melanoma
M14 melanoma = test system: M14 melanoma
MALME-3M melanoma = test system: MALME-3M melanoma
MCF7 breast = test system: MCF7 breast
MDA-MB-231 breast = test system: MDA-MB-231 breast
MDA-MB-435 = test system: MDA-MB-435
MOLT-4 leukemia = test system: MOLT-4 leukemia
NCI-H226 lung = test system: NCI-H226 lung
NCI-H23 lung = test system: NCI-H23 lung
NCI-H460 lung = test system: NCI-H460 lung
NCI-H522 lung = test system: NCI-H522 lung
NCI/ADR-RES ovarian = test system: NCI/ADR-RES ovarian
OVCAR-3 ovarian = test system: OVCAR-3 ovarian
OVCAR-4 ovarian = test system: OVCAR-4 ovarian
OVCAR-5 ovarian = test system: OVCAR-5 ovarian
OVCAR-8 ovarian = test system: OVCAR-8 ovarian
PC-3 prostate = test system: PC-3 prostate
RPMI-8226 leukemia = test system: RPMI-8226 leukemia
RXF 393 renal = test system: RXF 393 renal
SF-268 CNS = test system: SF-268 CNS
SF-295 CNS = test system: SF-295 CNS
SF-539 CNS = test system: SF-539 CNS
SK-MEL-2 melanoma = test system: SK-MEL-2 melanoma
SK-MEL-28 melanoma = test system: SK-MEL-28 melanoma
SK-MEL-5 melanoma = test system: SK-MEL-5 melanoma
SK-OV-3 ovarian = test system: SK-OV-3 ovarian
SN12C renal = test system: SN12C renal
SNB-19 CNS = test system: SNB-19 CNS
SNB-75 CNS = test system: SNB-75 CNS
SR leukemia = test system: SR leukemia
SW-620 colon = test system: SW-620 colon
T-47D breast = test system: T-47D breast
TK-10 renal = test system: TK-10 renal
U251 CNS = test system: U251 CNS
UACC-257 melanoma = test system: UACC-257 melanoma
UACC-62 melanoma = test system: UACC-62 melanoma
UO-31 renal = test system: UO-31 renal

Cc1cc(C)nc(NC(N)=NCCc2ccccc2)n1
77.2 µM: TGI (RXF 393 renal)
30.6 µM: TGI (HCC-2998 colon)
28.9 µM: TGI (SK-OV-3 ovarian)
39 µM: TGI (A498 renal)
35.8 µM: TGI (SN12C renal)
14.5 µM: TGI (SR leukemia)
89 µM: TGI (A549 NSCLC)
5.44 µM: TGI (SF-295 CNS)
41.9 µM: TGI (SF-268 CNS)
9.75 µM: TGI (SNB-75 CNS)
34.8 µM: TGI (OVCAR-8 ovarian)
24.2 µM: TGI (M14 melanoma)
43.6 µM: TGI (T-47D breast)
53.1 µM: TGI (HOP-62 NSCLC)
5.39 µM: TGI (SK-MEL-5 melanoma)
> 100 µM: TGI (786-0 renal) | TGI (ACHN renal) | TGI (BT-549 breast) | TGI (CCRF-CEM leukemia) | TGI (DU-145 prostate) | TGI (HCT-116 colon) | TGI (HCT-15 colon) | TGI (HT29 colon) | TGI (K-562 leukemia) | TGI (KM12 colon) | TGI (MOLT-4 leukemia) | TGI (NCI-H226 lung) | TGI (NCI-H23 lung) | TGI (NCI-H460 lung) | TGI (NCI/ADR-RES ovarian) | TGI (OVCAR-4 ovarian) | TGI (OVCAR-5 ovarian) | TGI (PC-3 prostate) | TGI (RPMI-8226 leukemia) | TGI (SK-MEL-2 melanoma) | TGI (SNB-19 CNS) | TGI (SW-620 colon) | TGI (TK-10 renal) | TGI (U251 CNS)
44.3 µM: TGI (LOX IMVI melanoma)
89.9 µM: TGI (EKVX NSCLC)
4.49 µM: TGI (MDA-MB-435)
10.5 µM: TGI (MALME-3M melanoma)
12.5 µM: TGI (COLO 205 colon)
inactive: GI50 (786-0 renal) 4.86 µM | GI50 (A498 renal) 5.26 µM | GI50 (A549 NSCLC) 3.03 µM | GI50 (ACHN renal) 4.94 µM | GI50 (BT-549 breast) 3.92 µM | GI50 (CAKI-1 renal) 19.4 µM | GI50 (CCRF-CEM leukemia) 5.19 µM | GI50 (COLO 205 colon) 2.68 µM | GI50 (DU-145 prostate) 3.4 µM | GI50 (EKVX NSCLC) 3.66 µM | GI50 (HCC-2998 colon) 8.41 µM | GI50 (HCT-116 colon) 2.78 µM | GI50 (HCT-15 colon) 5.09 µM | GI50 (HL-60(TB) leukemia) 2.9 µM | GI50 (HOP-62 NSCLC) 3.16 µM | GI50 (HOP-92 NSCLC) 3.97 µM | GI50 (HS 578T breast) 4.41 µM | GI50 (HT29 colon) 3.02 µM | GI50 (K-562 leukemia) 3.56 µM | GI50 (KM12 colon) 3.62 µM | GI50 (LOX IMVI melanoma) 2.03 µM | GI50 (M14 melanoma) 2.8 µM | GI50 (MALME-3M melanoma) 2.23 µM | GI50 (MCF7 breast) 2.72 µM | GI50 (MDA-MB-231 breast) 6.55 µM | GI50 (MDA-MB-435) 1.52 µM | GI50 (MOLT-4 leukemia) 6.01 µM | GI50 (NCI-H226 lung) 5.06 µM | GI50 (NCI-H23 lung) 7.02 µM | GI50 (NCI-H460 lung) 3.43 µM | GI50 (NCI-H522 lung) 6.02 µM | GI50 (NCI/ADR-RES ovarian) 31 µM | GI50 (OVCAR-3 ovarian) 2.76 µM | GI50 (OVCAR-4 ovarian) 5.35 µM | GI50 (OVCAR-5 ovarian) 9.81 µM | GI50 (OVCAR-8 ovarian) 3.69 µM | GI50 (PC-3 prostate) 3.88 µM | GI50 (RPMI-8226 leukemia) 6.45 µM | GI50 (RXF 393 renal) 7.22 µM | GI50 (SF-268 CNS) 3.4 µM | GI50 (SF-295 CNS) 1.64 µM | GI50 (SF-539 CNS) 2.56 µM | GI50 (SK-MEL-2 melanoma) 12.6 µM | GI50 (SK-MEL-28 melanoma) 3.59 µM | GI50 (SK-MEL-5 melanoma) 1.75 µM | GI50 (SK-OV-3 ovarian) 2.65 µM | GI50 (SN12C renal) 3.2 µM | GI50 (SNB-19 CNS) 4.55 µM | GI50 (SNB-75 CNS) 2.08 µM | GI50 (SR leukemia) 2.77 µM | GI50 (SW-620 colon) 3.51 µM | GI50 (T-47D breast) 2.35 µM | GI50 (TK-10 renal) 17.6 µM | GI50 (U251 CNS) 3.15 µM | GI50 (UACC-257 melanoma) 2.64 µM | GI50 (UACC-62 melanoma) 2.97 µM | GI50 (UO-31 renal) 5.54 µM
73.6 µM: TGI (MCF7 breast)
97.5 µM: TGI (CAKI-1 renal)
65.9 µM: TGI (NCI-H522 lung)
50.8 µM: TGI (UO-31 renal)
8.35 µM: TGI (OVCAR-3 ovarian)
54.9 µM: TGI (HS 578T breast)
73.1 µM: TGI (HOP-92 NSCLC)
33.6 µM: TGI (SK-MEL-28 melanoma)
39.4 µM: TGI (UACC-257 melanoma)
52.8 µM: TGI (MDA-MB-231 breast)
26.2 µM: TGI (SF-539 CNS)
21.4 µM: TGI (UACC-62 melanoma)
12.4 µM: TGI (HL-60(TB) leukemia)
